Assay results reported in a melting point compilation (Tetko et al.; mined from patent text by program, amines drawn as free bases though some values may be those of a salt).

Row | Structure (SMILES) | melting point [°C]
1 | COc1cc(OC)c2c(c1)C(C)(C)C(c1ccc(OC)c(OC)c1)C(C)C(=O)O2 (stereo unspecified) | 163 to 165
2 | O=[N+]([O-])c1ccc(OCc2ccc3ccccc3n2)cc1 | 142 to 143
3 | CC(=O)N1CC(C)(C)c2cc3nc(C(F)(F)F)[nH]c3cc21 | 290 to 291
4 | COc1cccc2c1C(O)c1ccccc1C21CCN(C)CC1 (stereo unspecified) | 149 to 151
5 | N#CCc1ccc(OCCCN2CCN(C34CC5CC(CC(C5)C3)C4)CC2)cc1 | 136 to 138
6 | Cc1cc(Cl)cc(C(=O)NC(C)C)c1NC(=O)c1cc(Br)nn1-c1ncccc1Cl | 159 to 161
7 | Cc1ccc(OC2CCC3C4CC=C5CC(O[Si](C)(C)C(C)(C)C)CCC5(C)C4CCC23C)cc1 (stereo unspecified) | 137 to 138
8 | CN(Cc1ccccc1)C(=O)COc1ccc([N+](=O)[O-])cc1 | 95 to 96
9 | C#CC1(OC(C)=O)CCC2C3CC(=C)C4=CC(=O)CCC4(C)C3CCC21C (stereo unspecified) | 158 to 160
10 | CCCc1c2oc(C(N)=O)cc(=O)c2cc2c(=O)cc(C(=O)OCC)oc12 | 229 to 231
11 | CCCc1nc2c(N)nc3cc(OCCCNC(=O)c4cccnc4)ccc3c2n1CC(C)C | 172 to 174
12 | COc1ccc(C(=O)c2[nH]c3ccc(Cl)cc3c2CC(=O)O)cc1 | 232 to 235
13 | CCc1noc(-c2ncn(-c3cccnc3)c2C)n1 | 127 to 128
14 | Cc1[nH]c(-c2ccccc2)nc1-c1cc(C(C)(C)C)c(O)c(C(C)(C)C)c1 | 298 to 300
15 | CCOC(=O)CSc1nc2ccc(N)cc2s1 | 87 to 89
16 | CC(C)Oc1ccccc1C(=O)NC(=O)NC1CN2CCC1CC2 (stereo unspecified) | 171 to 175
17 | CSc1sc2[nH]c(=O)c(=O)[nH]c2c1C#N | > 225
18 | COc1ccc(C(C)c2cc3c(cc2OC)OCO3)cc1 (stereo unspecified) | 93 to 94
19 | CN1OCCN(c2ccc([N+](=O)[O-])c(C(F)(F)F)c2)C1=O | 104 to 105
20 | CC(C)N[C@@H]1Cc2cccc(O)c2C[C@H]1O (relative stereo) | 138 to 140
21 | Nc1c(Nc2ccon2)cnc2c1COCC2 | 209 to 211
22 | COC(=O)C(CCCBr)Oc1cc2c(cc1[N+](=O)[O-])CCC2 (stereo unspecified) | 154 to 155
23 | O=C(Nc1ccc2cc(CN3CCCC3)cnc2c1)c1ccc(-c2ccc(Cl)cc2)cc1 | 217 to 220
24 | O=C(CCl)Nc1ccc(NNC(=O)c2ccccc2CO)cc1 | 172 to 173
25 | CCCCNC(=O)NS(=O)(=O)c1ccc(N2CCC(NC[C@H](O)c3ccc(O)c(NS(C)(=O)=O)c3)CC2)cc1 | 100 to 102
26 | CCOc1cc(C)c(C(=O)N=C(N)N)cc1S(C)(=O)=O | 201 to 203
27 | CC(NC(CCc1ccccc1)C(=O)O)C(=O)OC(Cc1ccccc1)C(=O)O (stereo unspecified) | 199 to 200
28 | Cc1cc(Cl)ccc1OCC(=O)N1Cc2ccc(C(=O)CCc3ccccc3)n2Cc2ccccc21 | 130 to 134

Row | Structure (SMILES) | melting point [°C]
29 | C=CC(=O)OCCCCCCCCCCCOc1ccc(O)cc1 | 72 to 74
30 | CN(C)c1cccc(Oc2ncccc2C(=O)NCc2ccccc2Cl)c1 | 85 to 87
31 | COC(=O)C=CC(=O)c1cc(F)ccc1N | 80 to 84
32 | c1ccc2c(c1)CC(CN1CCN(c3ccc4c(c3)OCC4)CC1)C2 | 171 to 173
33 | CN(c1c(Cl)cc(Cl)cc1Cl)n1cc(C#N)c(=O)n(C)c1=O | 175 to 178
34 | CCCCCCCCCCCCCCCCCCN(C)S(=O)(=O)c1ccc(Cl)c([N+](=O)[O-])c1 | 86 to 87
35 | CCCNS(=O)(=O)c1cc2cc(P(=O)(OCC)OCC)c(=O)[nH]c2cc1Cl | > 300
36 | Cc1nnc2n1-c1sc(CCc3ccc(CC(C)C)cc3)cc1C(c1ccccc1Cl)=NC2C (stereo unspecified) | 130 to 132
37 | Cc1cc(N2CCN(c3ccncc3)CC2)ccc1OCCCC(=O)O | 261 to 262
38 | c1ccc(N=C(Nc2ccccc2)c2ccccc2)cc1 | 143 to 144
39 | CCCCCCCCCCCCCCCCNc1ccc(C(=O)NCC(=O)OCC)cc1 | 97.5 to 99.5
40 | O=C(NCCc1cncn1CCc1ccccc1)[C@H]1CN(Cc2ccccc2)CCN1C(=O)NC1CCCCC1 | 64.4
41 | Cc1nc(-c2ccccc2C(F)(F)F)c(CCC(=O)O)o1 | 118 to 119
42 | Fc1ccc(-c2ccn(C3CCCNC3)c2-c2ccncc2)cc1 (stereo unspecified) | 189 to 191
43 | CCCCn1nnc2cc(C(=O)O)ccc21 | 192
44 | CC(C)c1c(C(=O)N[C@H](C)[C@](O)(Cn2cncn2)c2ccc(F)cc2F)cnn1-c1ccc(Cl)cc1 | 85 to 92
45 | CCc1nc2c(cnn2CC)c(NC2CCOCC2)c1CNC(=O)c1cccc(C(=O)NCc2ccc(Cl)c(-c3cccc(CN4CCNCC4)c3)c2)c1 | 127 to 130
46 | CCn1nc(-c2ncc(NCc3ccc(OC)cc3)nc2-c2ccccc2)ccc1=O | 148 to 150
47 | CCOC(=O)Nc1ccc(C2CCN(C(=O)OC(C)(C)C)CC2)cc1 | 126 to 128
48 | Cc1nc(-c2ccc(OC(C)C)c(C#N)c2)sc1C(=O)O | 220 to 222
49 | O=c1[nH]nc(-c2ccc(C(F)(F)F)cc2)o1 | 214 to 216
50 | CNC(=O)c1ccnc(NC(=O)N2CCC3(CCc4ccc(F)cc4O3)CC2)c1 | 177 to 179
51 | CCOC(=O)COc1ccc(NC(=O)c2csc(NC(=N)N)n2)cc1 | 206
52 | O=C1c2ccccc2C(=O)c2sc(-c3ccccn3)nc21 | > 260
53 | O=C(O)CCCCCn1sc2ccccc2c1=O | 59 to 61
54 | CCCN1CCCCC1C(=O)Nc1c(C)cccc1C (stereo unspecified) | 142 to 145
55 | CCOC(=O)C(O)=Cc1ncc(CCc2ccc(F)cc2)cn1 | 133 to 134

Now from value to molecule:

Row | melting point [°C] | Structure (SMILES)
56 | 108 to 109 | COc1ccc(Cc2nc(C)c[nH]2)cc1
57 | 179 to 183 | O=C(CBr)OCN1C(=O)NC(c2ccccc2)(c2ccccc2)C1=O
58 | 35 to 36 | CCCCCCN1CN(C)C=C1C(=O)NCCCCCCOc1ccc(OC)cc1
59 | > 275 | C=C(Nc1nc(-c2ccccc2)c(-c2nc3ccccc3c(=O)n2-c2ccccc2Cl)s1)c1ccco1
60 | 180 | COc1ccccc1OC1(Cl)C=NC(N2CCOCC2)=NC1Cl (stereo unspecified)
61 | 100 to 101 | COc1c(O)c(C(C)=O)c(OC)c2c1OCC2
62 | 223 to 225 | C[C@]12CCC(=O)N[C@@H]1CCc1cc(Sc3ccccn3)ccc12
63 | 166 to 167 | CC(C)(C)NS(=O)(=O)Cc1cc(Br)c(NC(=O)C(F)(F)F)c(Br)c1
64 | 182 to 184 | N#CC1=C(c2ccccc2)Nc2ccccc2S1=O (stereo unspecified)
65 | 54 to 56 | CCNc1nc(S(C)=O)ncc1C(=O)OCC (stereo unspecified)
66 | 92 to 94 | O=C(Cn1c(-c2ccccc2)ncc(NS(=O)(=O)c2ccccc2)c1=O)NC(Cc1ccccc1)C(=O)C(F)(F)F (stereo unspecified)
67 | 115 to 117 | C=CCN1CC(c2ccccc2)=C(OCCN(C)C)C1=O
68 | 284 to 287 | O=c1c2c(Cc3ccccc3)n[nH]c2c2cnccc2n1-c1ccccc1
69 | 244 to 248 | COc1cc2ncc3c(N)nc(C)cc3c2cc1OC
70 | 89 to 91 | COC(=O)CCCc1nc(-c2ccc(F)cc2)c(-c2ccc(S(C)(=O)=O)cc2)o1
71 | 226 to 233 | COc1cc(C(CCC(C(=O)O)c2cc(OC)c(OC)c(OC)c2)C(=O)O)cc(OC)c1OC (stereo unspecified)
72 | 38 to 39 | CC(C)(C)c1cc(C=O)c(O)cc1Cl
73 | 193 to 196 | CC(=O)c1ccsc1S(N)(=O)=O
74 | 48 | CCOc1ccc([N+](=O)[O-])c(F)c1
75 | 190 | Clc1ccc2c(c1)N(c1ncnc3c(Cl)cccc13)CC2
76 | 98 to 100 | Cc1c(-c2ccc(O)cc2)n(Cc2ccc(OCCN3CC4(C)CC3CC(C)(C)C4)cc2)c2ccc(O)cc12 (stereo unspecified)
77 | 92 to 95 | O=[N+]([O-])c1ccc2[nH]cc(CCCBr)c2c1
78 | 149 to 150 | COc1ccc(-c2nc(-c3ccccc3)n(CCCCCCCC(=O)O)c2-c2ccc(OC)cc2)cc1

Row | melting point [°C] | Structure (SMILES)
79 | 182 to 184 | Cc1ccc(-c2cn3cc(-c4cccc(COc5ccc(Cl)cc5)c4)ccc3n2)cc1
80 | 88 to 89.5 | COC(=O)/C=C/C=C(\c1ccccc1)c1ccc(OC)cc1
81 | 152 to 154 | Cc1cc(NS(=O)(=O)c2ccc(F)cc2)cc(C)c1S(=O)(=O)C[N+](=O)[O-]
82 | 49 to 52 | CC(C)(CCCCC(=O)CCCCC1(C(=O)O)CC1)C(=O)O
83 | 164 | CNC(=O)NC(=S)N1N=C(c2ccc([N+](=O)[O-])cc2)c2cc3c(cc2CC1C)OCO3 (stereo unspecified)
84 | 93 to 95 | O=C(O)c1cc(OCC(F)(F)F)cc(Oc2cccc(C(F)(F)F)c2)n1
85 | 202 to 203 | CCN1CC(C)=CC2=C1N1CN(OC)C=C1N=N2
86 | 239 to 243 | N#CC1=C(N)Oc2c(ccc3cnccc23)C1c1cccc([N+](=O)[O-])c1 (stereo unspecified)
87 | 83 to 89 | CC(C)(C)OC(=O)C(CC(O)(C(F)(F)F)C(F)(F)F)NC(=O)OCc1ccccc1 (stereo unspecified)
88 | 146 to 147 | COc1cc(C(=O)O)ccc1Cc1cn(C(C)C(=O)N(C)C)c2ccc(C(=O)NCC3CCCC3)cc12 (stereo unspecified)
89 | 133 to 138 | C[C@@H](n1cnc2cc(-c3ccc(C#N)cc3)sc2c1=O)[C@](O)(Cn1cncn1)c1ccc(Cl)cc1Cl
90 | 165 to 167 | C#CC(=O)NCc1ccccc1
91 | 65 to 67 | CCOC(=O)Cc1cn(-c2ncnc3ccccc23)c2ccccc12
92 | 202 | CN(CCNc1ccnc2c(NC(=O)c3c(Cl)cccc3Cl)cccc12)C(=O)n1ccnc1
93 | 92 to 94 | Cc1nc(Br)sc1C(=O)NCc1ccccc1
94 | 142 to 144 | O=C(O)c1ccc(Cl)cc1Cc1ccccc1
95 | 116 to 118 | CCC(=O)Nc1ccc(OC)c(=O)cc1
96 | > 300 | O=c1[nH]cnc2cc[nH]c12
97 | 191 to 194 | O=C(Nc1cccc(-c2ccnc3c(C(=O)c4cccs4)cnn23)c1)c1cccnc1
98 | 193 | CCOc1cc2ncc(Nc3cccc(F)c3)nc2cc1OCC
99 | 211 to 212 | O=C(O)[C@@H]1Cc2ccccc2N1c1ccc(Cl)nn1
100 | 106 to 109 | O=C/C(=C/c1ccc(Cl)cc1Cl)c1ccc(Cl)cc1
101 | 129 to 140 | CC(=O)NC1(c2ccc(CN3CCN(c4ccccc4)CC3)cc2)CC1
